Experimental data as given in patent US5587479A, “Basic derivatives of glutamic acid and aspartic acid as gastrin or cholecystokinin antagonists” (priority 1992, dated 1996).
Values after ≈ are worked out from the molar mass of the structure shown. Where two headings read alike, the source gives them in different places.

Legend:
guinea-pig ureters = test: Antispastic activity in vitro: spontaneous motility of guinea-pig ureters; conditions: Cavia porcellus
Source text: The isotonic contractions were detected by means of a force transducer and recorded. […] A given concentration of the product under test was then introduced into the bath and left in contact with the prepared specimen for five minutes, after which the ureter was washed until its own spontaneous activity was re-established.

mouse = test: Anxiolytic activity in the mouse, Black and White Box test; format: in vivo; conditions: for TOTAL MOV.: five minutes; for anxiolytic activity in the Black and White Box test (in words): IP
Procedure: In order to confirm the hypothesis that the potent activity of some of the compounds of the invention against central CCK-B may be correlated with a possible anxiolytic activity, this potential activity was evaluated in the mouse with the use of the "Black and White Box test". This experimental model, which was carried out according to Costall et al. [Pharm. Biochem. Behav. 32 (1989), 777-785] used a box with dimensions of 45×21×21 (h) cm. divided into two compartments which communicated with each other by means of a 13×5 cm hole. The smaller compartment (1/3 of the total area) had black walls, whereas the larger had transparent walls and was illuminated by a lamp which was placed 20 cm above the box and supplied light at 20 W. Under the floor was an activity meter which registered the movements performed by the animal in the individual compartments. The experiment was started by placing the animal in the centre of the illuminated box; as well at its movements, the time which the animal spent in the dark and in the light and the number of times it moved between the 2 compartments were recorded for five minutes. In general, a control animal tended preferably to stay in the dark compartment where it felt better protected from an unusual enviromental situation which put it in a state of anxiety. In this experimental model ( see the reference cited above), a compound having anxiolytic activity decreased the % of movements into the dark in comparison with the total movements, increased the movements between the two light-dark compartments, and increased the % of the total time time spent in the light. The results obtained are given in Table 5 below in which the activities obtained with the compound 1 (the rectus series ) and its enantiomer 2 (sinister) tested in comparison with diazepam and the CCK-B antagonist L365-260.

[1] = read-out: IC50 (force), inhibition of the spontaneous motility of guinea-pig ureters in vitro
[2] = read-out: IC50 (frequency), inhibition of the spontaneous motility of guinea-pig ureters in vitro
[3] = force of the contractions, five minutes contact, 37° C., read-out: IC50 (force), inhibition of the spontaneous motility of guinea-pig ureters in vitro
[4] = frequency of the contractions, five minutes contact, 37° C., read-out: IC50 (frequency), inhibition of the spontaneous motility of guinea-pig ureters in vitro

SMILES: COc1ccc(CCN(C)CCCC(C#N)(c2ccc(OC)c(OC)c2)C(C)C)cc1OC (stereo not drawn) [Verapamil, reference compound]
- IC50 (guinea-pig ureters; [1]): 3 µg/mL (≈ 6.6 µM)
- IC50 (guinea-pig ureters; [2]): 2.2 µg/mL (≈ 4.84 µM)

SMILES: CCCCCN(CCCCC)C(=O)C(CCC(=O)NCCN1CCOCC1)NC(=O)c1ccc(Cl)c(Cl)c1 (stereo not drawn) [Compound 37]
- IC50 (guinea-pig ureters; [3]): 8 µg/mL (≈ 14 µM)
- IC50 (guinea-pig ureters; [4]): 7 µg/mL (≈ 12.2 µM)

SMILES: CCCCN(CCCC)C(=O)C(CCC(=O)NCCN(C)C)NC(=O)c1ccc(C)c(C)c1 (stereo not drawn) [Compound 25]
- IC50 (guinea-pig ureters; [3]): 36 µg/mL (≈ 78.1 µM)

SMILES: CCCCCN(CCCCC)C(=O)C(CCC(=O)NCCN1CCOCC1)NC(=O)c1ccccc1 (stereo not drawn) [Compound 32]
- IC50 (guinea-pig ureters; [4]): 22 µg/mL (≈ 43.8 µM)

SMILES: COc1ccc(Cc2nccc3cc(OC)c(OC)cc23)cc1OC [Papaverine, reference compound]
- IC50 (guinea-pig ureters; [1]): 23 µg/mL (≈ 67.8 µM)
- IC50 (guinea-pig ureters; [2]): 27 µg/mL (≈ 79.6 µM)

SMILES: CCCCCN(CCCCC)C(=O)C(CCC(=O)NCCCN1CCOCC1)NC(=O)c1ccc(C)c(C)c1 (stereo not drawn) [Compound 47]
- IC50 (guinea-pig ureters; [3]): 12 µg/mL (≈ 22 µM)
- IC50 (guinea-pig ureters; [4]): 15 µg/mL (≈ 27.5 µM)

SMILES: CCCCCN(CCCCC)C(=O)C(CCC(=O)NCC1CCCN1CC)NC(=O)c1ccc(C)c(C)c1 (stereo not drawn) [Compound 58]
- IC50 (guinea-pig ureters; [3]): 14 µg/mL (≈ 26.5 µM)
- IC50 (guinea-pig ureters; [4]): 19 µg/mL (≈ 35.9 µM)

SMILES: CCCCCN(CCCCC)C(=O)[C@@H](CCC(=O)NCCN1CCOCC1)NC(=O)c1ccc(C)c(C)c1 [Compound 45]
- IC50 (guinea-pig ureters; [3]): 8 µg/mL (≈ 15.1 µM)
- IC50 (guinea-pig ureters; [4]): 6 µg/mL (≈ 11.3 µM)

SMILES: Cc1c(-c2ccccc2)oc2c(C(=O)OCCN3CCCCC3)cccc2c1=O [Flavoxate, reference compound]
- IC50 (guinea-pig ureters; [3]): 29 µg/mL (≈ 74.1 µM)

SMILES: CCCCCN(CCCCC)C(=O)C(CCC(=O)NCCN(CC)CC)NC(=O)c1ccc(C)c(C)c1 (stereo not drawn) [Compound 42]
- IC50 (guinea-pig ureters; [3]): 18 µg/mL (≈ 34.8 µM)
- IC50 (guinea-pig ureters; [4]): 22 µg/mL (≈ 42.6 µM)

SMILES: CCCCCN(CCCCC)C(=O)C(CCC(=O)NCCN(C)C)NC(=O)c1ccc(C)c(C)c1 (stereo not drawn) [Compound 40]
- IC50 (guinea-pig ureters; [3]): 27 µg/mL (≈ 55.2 µM)
- IC50 (guinea-pig ureters; [4]): 44 µg/mL (≈ 90 µM)

SMILES: CCCCCN(CCCCC)C(=O)C(CCC(=O)NCCCN1CCN(Cc2ccccc2)CC1)NC(=O)c1ccc(C)c(C)c1 (stereo not drawn) [Compound 51]
- IC50 (guinea-pig ureters; [3]): 100 µg/mL (≈ 158 µM)
- IC50 (guinea-pig ureters; [4]): 100 µg/mL (≈ 158 µM)

SMILES: CCCCCN(CCCOC)C(=O)C(CCC(=O)NCCN1CCOCC1)NC(=O)c1ccc(C)c(C)c1 (stereo not drawn) [Compound 64]
- IC50 (guinea-pig ureters; [3]): 59 µg/mL (≈ 111 µM)

SMILES: CCCCCN(CCCCC)C(=O)C(CCC(=O)NCCN1CCOCC1)NC(=O)c1ccc(C#N)cc1 (stereo not drawn) [Compound 34]
- IC50 (guinea-pig ureters; [3]): 12 µg/mL (≈ 22.7 µM)
- IC50 (guinea-pig ureters; [4]): 12 µg/mL (≈ 22.7 µM)

SMILES: CCCCN(CCCC)C(=O)C(CCC(=O)NCCCN(C)C)NC(=O)c1ccc(C)c(C)c1 (stereo not drawn) [Compound 27]
- IC50 (guinea-pig ureters; [3]): 33 µg/mL (≈ 69.5 µM)

SMILES: CCCCN(CCCC)C(=O)C(CCC(=O)NCCN1CCOCC1)NC(=O)c1ccc(C)c(C)c1 (stereo not drawn) [Compound 28]
- IC50 (guinea-pig ureters; [3]): 18 µg/mL (≈ 35.8 µM)
- IC50 (guinea-pig ureters; [4]): 43 µg/mL (≈ 85.5 µM)

SMILES: CN1C(=O)CN=C(c2ccccc2)c2cc(Cl)ccc21 [DIAZEPAM, diazepam, reference compound]
- LIGHT TIME (%) TOTAL TIME (mouse; 1 mg/kg IP): 29.3%
- LIGHT TIME (%) TOTAL TIME: % EFF.VS CONTROL (mouse; 1 mg/kg IP): 19%
- LIGHT-DARK MOVEMENTS (mouse; 1 mg/kg IP): 19.9
- LIGHT-DARK MOVEMENTS: % EFF. VS CONTROL (mouse; 1 mg/kg IP): +37.2%
- MOV. DARK (%) TOTAL MOV. (mouse; 1 mg/kg IP): 53%
- MOV. DARK (%) TOTAL MOV.: % EFF. VS CONTROL (mouse; 1 mg/kg IP): -5%
- TOTAL MOV. (mouse; 1 mg/kg IP): 508
- LIGHT TIME (%) TOTAL TIME (mouse; 3 mg/kg IP): 33.6%
- LIGHT TIME (%) TOTAL TIME: % EFF.VS CONTROL (mouse; 3 mg/kg IP): 36.7%
- LIGHT-DARK MOVEMENTS (mouse; 3 mg/kg IP): 22.3
- LIGHT-DARK MOVEMENTS: % EFF. VS CONTROL (mouse; 3 mg/kg IP): +53.8%
- MOV. DARK (%) TOTAL MOV. (mouse; 3 mg/kg IP): 52%
- MOV. DARK (%) TOTAL MOV.: % EFF. VS CONTROL (mouse; 3 mg/kg IP): -7%
- TOTAL MOV. (mouse; 3 mg/kg IP): 539
- anxiolytic activity in the Black and White Box test (in words) (mouse): active in a dose-dependent manner for all the parameters tested

SMILES: Cc1cccc(NC(=O)N[C@@H]2N=C(c3ccccc3)c3ccccc3N(C)C2=O)c1 [Compound L-365-260, reference compound]
- LIGHT TIME (%) TOTAL TIME (mouse; 0.01 mg/kg IP): 27.0%
- LIGHT TIME (%) TOTAL TIME: % EFF.VS CONTROL (mouse; 0.01 mg/kg IP): 0%
- LIGHT-DARK MOVEMENTS (mouse; 0.01 mg/kg IP): 14.2
- LIGHT-DARK MOVEMENTS: % EFF. VS CONTROL (mouse; 0.01 mg/kg IP): -12%
- MOV. DARK (%) TOTAL MOV. (mouse; 0.01 mg/kg IP): 57%
- MOV. DARK (%) TOTAL MOV.: % EFF. VS CONTROL (mouse; 0.01 mg/kg IP): 12%
- TOTAL MOV. (mouse; 0.01 mg/kg IP): 417
- LIGHT TIME (%) TOTAL TIME (mouse; 0.1 mg/kg IP): 31.8%
- LIGHT TIME (%) TOTAL TIME: % EFF.VS CONTROL (mouse; 0.1 mg/kg IP): 18%
- LIGHT-DARK MOVEMENTS (mouse; 0.1 mg/kg IP): 13.3
- LIGHT-DARK MOVEMENTS: % EFF. VS CONTROL (mouse; 0.1 mg/kg IP): -18%
- MOV. DARK (%) TOTAL MOV. (mouse; 0.1 mg/kg IP): 54%
- MOV. DARK (%) TOTAL MOV.: % EFF. VS CONTROL (mouse; 0.1 mg/kg IP): 18%
- TOTAL MOV. (mouse; 0.1 mg/kg IP): 446
- anxiolytic activity in the Black and White Box test (in words) (mouse): active at a dose of 0.1 mg/kg but only for the parameter which relates to the increase in the time spent in the light
